According to US5135943A, “1H-imidazole derivative compounds and pharmaceutical compositions containing the same” (priority 1984, dated 1992):
In brackets after ≈: the same amount, converted by molar mass. Like-named read-outs stand apart in the source and are kept apart here.

Tests used:
Swiss mice [1] = conditions: mouse, in vivo
Description: (§3) Such signs included convulsions and Straub tail(vertical righting of the tail).

in vivo = conditions: mouse, ip
Description: as §3

16 microorganisms = assay: Geometric mean of all MIC measurements, comparative in vitro testing; assay type: cell-based; conditions: read-out: Geometric means of MIC
Experimental: (§1) Minimum Inhibitory Concentrations (MICS) of Sertaconazole were also measured in comparison to four of the compounds described in the Martin Patent, including a compound, referred to herein as Martin Compound 1, which has the same structure as Sertaconazole, expect that the sulfur in the benzothiophene ring is replaced by an oxygen.
(§2) The results of comparative in vitro testing of Sertaconazole and these four Martin compounds are shown in the following Table II against 16 microorganisms. The reading time is the time interval from the time of inoculation to the time of measurement.

C. albicans ATCC E-10231 = assay: MIC, comparative in vitro testing against Martin compounds; assay type: cell-based; conditions: Candida albicans, ATCCE10231, Casitone medium, read-out: MIC
Experimental: as §1, §2

C. stellatoidea 36232 = assay: as above; assay type: cell-based
Experimental: as §1, §2

C. guillermondii = assay: as above; assay type: cell-based; conditions: read-out: MIC
Experimental: as §1, §2

C. pseudotropicalis 21 = assay: as above; assay type: cell-based; conditions: Kluyveromyces marxianus, 21, Sabouraud medium, read-out: MIC
Experimental: as §1, §2

C. parapsilosis 19 = assay: as above; assay type: cell-based
Experimental: as §1, §2

C. albicans 32 = assay: as above; assay type: cell-based; conditions: Candida albicans, 32, YNB medium, read-out: MIC
Experimental: as §1, §2

C. albicans 31 = assay: as above; assay type: cell-based; conditions: Candida albicans, 31, YNB medium, read-out: MIC
Experimental: as §1, §2

C. tropicalis 25 = assay: as above; assay type: cell-based; conditions: YNB medium
Experimental: as §1, §2

C. krusei 24 = assay: as above; assay type: cell-based; conditions: read-out: MIC
Experimental: as §1, §2

C. albicans 14 = assay: as above; assay type: cell-based; conditions: Casitone medium
Experimental: as §1, §2

C. albicans 15 = assay: as above; assay type: cell-based; conditions: Casitone medium
Experimental: as §1, §2

Swiss mice [2] = assay: Acute toxicity in Swiss mice i.p.; conditions: for LD0: Swiss mice i.p.
Description: as §3

**Q.** Which “mice with generalized pulmonary edema and congestion” value (Swiss mice [1]) does the source give for `Clc1ccc(C(Cn2ccnc2)OCc2cc3cc(Cl)ccc3o2)c(Cl)c1` (centres unmarked) [Martin compound 3, reference compound] here?
**A.** Its value is 80%.

**Q.** And the “signs of intoxication in the central nervous system (convulsions and Straub tail)” value (Swiss mice [1])?
**A.** Its value is “evident signs of intoxication in the central nervous system”.

**Q.** And the LD0 (Swiss mice [1]; ip)?
**A.** Its LD0 is 423 mg/kg.

**Q.** And the LD50 (in vivo)?
**A.** Its LD50 is 640 mg/kg.

**Q.** What about the MIC (16 microorganisms; 48 h, SZ vs M3, reading time 48 h) of the same compound?
**A.** Its MIC is 0.497 µg/mL (≈ 1.18 µM).

**Q.** What about the MIC (C. albicans ATCC E-10231; reading time 48 h, SZ vs M3) of the same compound?
**A.** Its MIC is 0.5 µg/mL (≈ 1.19 µM).

**Q.** And the MIC (C. stellatoidea 36232; Candida albicans, 36232, 48 h, Casitone medium, reading time 48 h, SZ vs M3)?
**A.** The MIC was 0.125 µg/mL (≈ 0.296 µM).

**Q.** And the MIC (C. stellatoidea 36232; Candida albicans, 36232, 48 h, Sabouraud medium, reading time 48 h, SZ vs M3)?
**A.** The MIC was 0.5 µg/mL (≈ 1.19 µM).

**Q.** What about the MIC (C. stellatoidea 36232; Candida albicans, 36232, 48 h, YNB medium, reading time 48 h, SZ vs M3) of the same compound?
**A.** Its MIC is 4 µg/mL (≈ 9.49 µM).

**Q.** And the MIC (C. guillermondii; 48 h, Casitone medium, reading time 48 h, SZ vs M3)?
**A.** The MIC was 0.25 µg/mL (≈ 0.593 µM).

**Q.** What about the MIC (C. guillermondii; 48 h, YNB medium, reading time 48 h, SZ vs M3) of the same compound?
**A.** Its MIC is 0.25 µg/mL (≈ 0.593 µM).

**Q.** What about the MIC (C. pseudotropicalis 21; reading time 48 h, SZ vs M3) of the same compound?
**A.** The MIC was 0.03 µg/mL (≈ 0.0711 µM).

**Q.** And the MIC (C. parapsilosis 19; 19, 48 h, Sabouraud medium, reading time 48 h, SZ vs M3)?
**A.** The MIC was 0.5 µg/mL (≈ 1.19 µM).

**Q.** What about the MIC (C. parapsilosis 19; 19, 48 h, YNB medium, reading time 48 h, SZ vs M3) of the same compound?
**A.** Its MIC is 1 µg/mL (≈ 2.37 µM).

**Q.** And the MIC (C. albicans 32; reading time 48 h, SZ vs M3)?
**A.** The MIC was 4 µg/mL (≈ 9.49 µM).

**Q.** What about the MIC (C. albicans 31; reading time 48 h, SZ vs M3) of the same compound?
**A.** Its MIC is 4 µg/mL (≈ 9.49 µM).

**Q.** And the MIC (C. tropicalis 25; Candida tropicalis, 25, 48 h, reading time 48 h, SZ vs M3)?
**A.** The MIC was 8 µg/mL (≈ 19 µM).

**Q.** And the MIC (C. krusei 24; Pichia kudriavzevii, 24, 48 h, Casitone medium, reading time 48 h, SZ vs M3)?
**A.** Its MIC is 0.125 µg/mL (≈ 0.296 µM).

**Q.** And the MIC (C. krusei 24; Pichia kudriavzevii, 24, 48 h, YNB medium, reading time 48 h, SZ vs M3)?
**A.** The MIC was 0.25 µg/mL (≈ 0.593 µM).

**Q.** And the MIC (C. albicans 14; Candida albicans, 14, 48 h, reading time 48 h, SZ vs M3)?
**A.** The MIC was 0.5 µg/mL (≈ 1.19 µM).

**Q.** And the MIC (C. albicans 15; Candida albicans, 15, 48 h, reading time 48 h, SZ vs M3)?
**A.** Its MIC is 0.06 µg/mL (≈ 0.142 µM).

**Q.** For `Clc1ccc(C(Cn2ccnc2)OCc2csc3c(Cl)cccc23)c(Cl)c1` (centres unmarked) [Sertaconazole nitrate], which LD0 (Swiss mice [1]; ip) is on record?
**A.** The LD0 was 2000 mg/kg.

**Q.** And the LD50 (Swiss mice [1]; ip)?
**A.** Its LD50 is 8000 mg/kg.

**Q.** Which results are given for `Clc1ccc(C(Cn2ccnc2)OCc2coc3c(Cl)cccc23)c(Cl)c1` (centres unmarked) [Martin compound 1, reference compound]?
**A.** LD50 (in vivo): 518 mg/kg; MIC (16 microorganisms; 60 h, SZ vs M1, reading time 60 h): 1.09 µg/mL (≈ 2.58 µM); MIC (C. albicans ATCC E-10231; reading time 60 h, SZ vs M1): 2 µg/mL (≈ 4.74 µM); MIC (C. stellatoidea 36232; Candida albicans, 36232, 60 h, Casitone medium, reading time 60 h, SZ vs M1): 0.5 µg/mL (≈ 1.19 µM); MIC (C. stellatoidea 36232; Candida albicans, 36232, 60 h, Sabouraud medium, reading time 60 h, SZ vs M1): 1 µg/mL (≈ 2.37 µM); MIC (C. stellatoidea 36232; Candida albicans, 36232, 60 h, YNB medium, reading time 60 h, SZ vs M1): 4 µg/mL (≈ 9.49 µM); MIC (C. guillermondii; 60 h, Casitone medium, reading time 60 h, SZ vs M1): 0.5 µg/mL (≈ 1.19 µM); MIC (C. guillermondii; 60 h, YNB medium, reading time 60 h, SZ vs M1): 0.5 µg/mL (≈ 1.19 µM); MIC (C. pseudotropicalis 21; reading time 60 h, SZ vs M1): 0.03 µg/mL (≈ 0.0711 µM); MIC (C. parapsilosis 19; 19, 60 h, Sabouraud medium, reading time 60 h, SZ vs M1): 1 µg/mL (≈ 2.37 µM); MIC (C. parapsilosis 19; 19, 60 h, YNB medium, reading time 60 h, SZ vs M1): 0.5 µg/mL (≈ 1.19 µM); MIC (C. albicans 32; reading time 60 h, SZ vs M1): 8 µg/mL (≈ 19 µM); MIC (C. albicans 31; reading time 60 h, SZ vs M1): 8 µg/mL (≈ 19 µM); MIC (C. tropicalis 25; Candida tropicalis, 25, 60 h, reading time 60 h, SZ vs M1): 8 µg/mL (≈ 19 µM); MIC (C. krusei 24; Pichia kudriavzevii, 24, 60 h, Casitone medium, reading time 60 h, SZ vs M1): 1 µg/mL (≈ 2.37 µM); MIC (C. krusei 24; Pichia kudriavzevii, 24, 60 h, YNB medium, reading time 60 h, SZ vs M1): 0.25 µg/mL (≈ 0.593 µM); MIC (C. albicans 14; Candida albicans, 14, 60 h, reading time 60 h, SZ vs M1): 2 µg/mL (≈ 4.74 µM); MIC (C. albicans 15; Candida albicans, 15, 60 h, reading time 60 h, SZ vs M1): 1 µg/mL (≈ 2.37 µM); LD0 (Swiss mice [2]): 285 mg/kg; signs of intoxication in the central nervous system (convulsions and Straub tail) (Swiss mice [2]; mice): evident signs of intoxication in the central nervous system

**Q.** Which LD50 (in vivo) does the source give for `Clc1ccc(C(Cn2ccnc2)OCc2coc3cc(Cl)ccc23)c(Cl)c1` (centres unmarked) [Martin compound 2, reference compound] here?
**A.** Its LD50 is 640 mg/kg.

**Q.** And the MIC (16 microorganisms; 48 h, SZ vs M2, reading time 48 h)?
**A.** Its MIC is 0.565 µg/mL (≈ 1.34 µM).

**Q.** And the MIC (C. albicans ATCC E-10231; reading time 48 h, SZ vs M2)?
**A.** The MIC was 0.5 µg/mL (≈ 1.19 µM).

**Q.** And the MIC (C. stellatoidea 36232; Candida albicans, 36232, 48 h, Casitone medium, reading time 48 h, SZ vs M2)?
**A.** The MIC was 0.06 µg/mL (≈ 0.142 µM).

**Q.** What about the MIC (C. stellatoidea 36232; Candida albicans, 36232, 48 h, Sabouraud medium, reading time 48 h, SZ vs M2) of the same compound?
**A.** Its MIC is 0.5 µg/mL (≈ 1.19 µM).

**Q.** What about the MIC (C. stellatoidea 36232; Candida albicans, 36232, 48 h, YNB medium, reading time 48 h, SZ vs M2) of the same compound?
**A.** Its MIC is 1 µg/mL (≈ 2.37 µM).

**Q.** And the MIC (C. guillermondii; 48 h, Casitone medium, reading time 48 h, SZ vs M2)?
**A.** Its MIC is 0.5 µg/mL (≈ 1.19 µM).

**Q.** And the MIC (C. guillermondii; 48 h, YNB medium, reading time 48 h, SZ vs M2)?
**A.** Its MIC is 0.5 µg/mL (≈ 1.19 µM).

**Q.** And the MIC (C. pseudotropicalis 21; reading time 48 h, SZ vs M2)?
**A.** Its MIC is 0.06 µg/mL (≈ 0.142 µM).

**Q.** What about the MIC (C. parapsilosis 19; 19, 48 h, Sabouraud medium, reading time 48 h, SZ vs M2) of the same compound?
**A.** The MIC was 1 µg/mL (≈ 2.37 µM).

**Q.** And the MIC (C. parapsilosis 19; 19, 48 h, YNB medium, reading time 48 h, SZ vs M2)?
**A.** Its MIC is 1 µg/mL (≈ 2.37 µM).

**Q.** What about the MIC (C. albicans 32; reading time 48 h, SZ vs M2) of the same compound?
**A.** The MIC was 4 µg/mL (≈ 9.49 µM).

**Q.** And the MIC (C. albicans 31; reading time 48 h, SZ vs M2)?
**A.** Its MIC is 4 µg/mL (≈ 9.49 µM).

**Q.** What about the MIC (C. tropicalis 25; Candida tropicalis, 25, 48 h, reading time 48 h, SZ vs M2) of the same compound?
**A.** The MIC was 8 µg/mL (≈ 19 µM).

**Q.** What about the MIC (C. krusei 24; Pichia kudriavzevii, 24, 48 h, Casitone medium, reading time 48 h, SZ vs M2) of the same compound?
**A.** The MIC was 0.05 µg/mL (≈ 0.119 µM).

**Q.** What about the MIC (C. krusei 24; Pichia kudriavzevii, 24, 48 h, YNB medium, reading time 48 h, SZ vs M2) of the same compound?
**A.** The MIC was 0.5 µg/mL (≈ 1.19 µM).

**Q.** And the MIC (C. albicans 14; Candida albicans, 14, 48 h, reading time 48 h, SZ vs M2)?
**A.** Its MIC is 0.25 µg/mL (≈ 0.593 µM).

**Q.** And the MIC (C. albicans 15; Candida albicans, 15, 48 h, reading time 48 h, SZ vs M2)?
**A.** The MIC was 0.06 µg/mL (≈ 0.142 µM).

**Q.** And the LD0 (Swiss mice [2])?
**A.** The LD0 was 235 mg/kg.
